{"source": "patent US20200347043A1", "about": "“MODULATORS OF THE INTEGRATED STRESS PATHWAY” (Calico Life Sciences LLC, priority 2019, published 2020)", "test_system": "HEK293T cells carrying the ATF4 luciferase reporter", "assay": "ATF4-Luc assay (in vitro model of VWMD)", "type": "cell-based, human", "details": "Homo sapiens, HEK-293T, 1 μg/mL tunicamycin, 7 hours, One Glo luminescence", "summary_of_the_method": "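Tunicamycin (1 μg/mL) stress with co-added compound for 7 hours in HEK293T cells stably carrying an ATF4 5′-UTR–luciferase reporter. EC50 values come from the luminescent signal (One Glo).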", "data": [{"compound": "O=C(N[C@@H]1CC[C@@H](c2nnc([C@H]3C[C@@H](OC(F)(F)F)C3)o2)OC1)[C@H]1C[C@@H](O)c2cc(Cl)ccc2O1", "note": "[Compound 169, (2R,4R)-6-chloro-4-hydroxy-N-[(3R,6S)-6-{5-[cis-3-(trifluoromethoxy)cyclobutyl]-1,3,4-oxadiazol-2-yl}oxan-3-yl]-3,4-dihydro-2H-1-benzopyran-2-carboxamide]", "values": [{"measurement": "EC50", "result": "< 10", "unit": "nM"}]}, {"compound": "O=C(N[C@H]1CC[C@H](C(=O)NCc2ccc(C(F)(F)F)cn2)CC1)[C@H]1C[C@@H](O)c2cc(Cl)ccc2O1", "note": "[Compound 105]", "values": [{"measurement": "EC50", "result": "< 10", "unit": "nM"}]}, {"compound": "O=C(NC12CC(c3nnc(COc4ccc(Cl)c(F)c4)o3)(C1)C2)[C@@H]1C[C@H](O)c2cc(Cl)ccc2O1", "note": "[Compound 111, (2S,4S)-6-chloro-N-(3-{5-[(4-chloro-3-fluorophenoxy)methyl]-1,3,4-oxadiazol-2-yl}bicyclo[1.1.1]pentan-1-yl)-4-hydroxy-3,4-dihydro-2H-1-benzopyran-2-carboxamide]", "values": [{"measurement": "EC50", "result": "10 to 50", "unit": "nM"}]}, {"compound": "O=C(NC12CC(c3cn([C@H]4C[C@@H](OC(F)(F)F)C4)cn3)(C1)C2)[C@H]1C[C@@H](O)c2cc(Cl)ccc2O1", "note": "[Compound 294, (2R,4R)-6-chloro-4-hydroxy-N-(3-{1-[cis-3-(trifluoromethoxy)cyclobutyl]-1H-imidazol-4-yl}bicyclo[1.1.1]pentan-1-yl)-3,4-dihydro-2H-1-benzopyran-2-carboxamide]", "values": [{"measurement": "EC50", "result": "10 to 50", "unit": "nM"}]}, {"compound": "O=C(NC12CCC(C(=O)N[C@H]3C[C@@H](OC(F)(F)F)C3)(CC1)CC2)[C@H]1C[C@@H](O)c2cc(Cl)ccc2O1", "note": "[Compound 222, (2R,4R)-6-chloro-4-hydroxy-N-(4-{[cis-3-(trifluoromethoxy)cyclobutyl]carbamoyl}bicyclo[2.2.2]octan-1-yl)-3,4-dihydro-2H-1-benzopyran-2-carboxamide]", "values": [{"measurement": "EC50", "result": "10 to 50", "unit": "nM"}]}, {"compound": "O=C(CO[C@H]1C[C@@H](OC(F)(F)F)C1)NC12CCC(NC(=O)[C@H]3C[C@@H](O)c4cc(Cl)ccc4O3)(CC1)[C@@H](O)C2", "note": "[Compound 220, (2R,4R)-6-chloro-4-hydroxy-N-[(2S)-2-hydroxy-4-(2-{[cis-3-(trifluoromethoxy)cyclobutyl]oxy}acetamido)bicyclo[2.2.2]octan-1-yl]-3,4-dihydro-2H-1-benzopyran-2-carboxamide]", "values": [{"measurement": "EC50", "result": "< 10", "unit": "nM"}]}, {"compound": "O=C1CC(C(=O)N[C@H]2C[C@H]3CC[C@@H](C2)N3CCCOc2ccc(Cl)cc2)Oc2ccc(Cl)cc21", "note": "(stereo partly shown) [Compound 101]", "values": [{"measurement": "EC50", "result": "> 2000", "unit": "nM"}]}, {"compound": "O=C(NC12CC(c3csc(-c4ccc(Cl)cc4)n3)(C1)C2)[C@@H]1C[C@@H](O)c2cc(Cl)ccc2O1", "note": "[Compound 273, (2S,4R)-6-chloro-N-{3-[2-(4-chlorophenyl)-1,3-thiazol-4-yl]bicyclo[11.11]pentan-1-yl}-4-hydroxy-3,4-dihydro-2H-1-benzopyran-2-carboxamide]", "values": [{"measurement": "EC50", "result": "50 to 250", "unit": "nM"}]}, {"compound": "O=C(NC12CC(c3cc(-c4ccc(Cl)c(F)c4)on3)(C1)C2)[C@H]1C[C@@H](O)c2cc(Cl)ccc2O1", "note": "[Compound 258, (2R,4R)-6-chloro-N-{3-[5-(4-chloro-3-fluorophenyl)-1,2-oxazol-3-yl]bicyclo[1.1.1]pentan-1-yl}-4-hydroxy-3,4-dihydro-2H-1-benzopyran-2-carboxamide]", "values": [{"measurement": "EC50", "result": "< 10", "unit": "nM"}]}, {"compound": "O=C1C[C@H](C(=O)NC23CC(C(=O)N[C@H]4C[C@@H](OC(F)(F)F)C4)(C2)C3)Oc2ccc(Cl)cc21", "note": "[Compound 216, (2R)-6-chloro-4-oxo-N-(3-{[cis-3-(trifluoromethoxy)cyclobutyl]carbamoyl}bicyclo[1.1.1]pentan-1-yl)-3,4-dihydro-2H-1-benzopyran-2-carboxamide]", "values": [{"measurement": "EC50", "result": "> 2000", "unit": "nM"}]}, {"compound": "O=C(CO[C@H]1C[C@@H](OC(F)(F)F)C1)NC12CCC(NC(=O)[C@H]3C[C@@H](O)c4cc(Cl)ccc4O3)(C1)C2", "note": "[Compound 196, (2R,4R)-6-chloro-4-hydroxy-N-[4-(2-{[cis-3-(trifluoromethoxy)cyclobutyl]oxy}acetamido)bicyclo[2.1.1]hexan-1-yl]-3,4-dihydro-2H-1-benzopyran-2-carboxamide]", "values": [{"measurement": "EC50", "result": "10 to 50", "unit": "nM"}]}, {"compound": "O=C(COc1ccc(Cl)c(F)c1)NC12CC(c3nnc([C@H]4C[C@@H](O)c5cc(Cl)ccc5O4)o3)(C1)C2", "note": "(racemic) [Compound 166, 2-(4-chloro-3-fluorophenoxy)-N-(3-{5-[rac-(2R,4R)-6-chloro-4-hydroxy-3,4-dihydro-2H-1-benzopyran-2-yl]-1,3,4-oxadiazol-2-yl}bicyclo[1.1.1]pentan-1-yl)acetamide]", "values": [{"measurement": "EC50", "result": "< 10", "unit": "nM"}]}, {"compound": "O=C(NC12CC(c3cc(-c4ccc(C(F)(F)F)nc4)on3)(C1)C2)[C@H]1C[C@@H](O)c2cc(Cl)ccc2O1", "note": "[Compound 260, (2R,4R)-6-chloro-4-hydroxy-N-(3-{5-[6-(trifluoromethyl)pyridin-3-yl]-1,2-oxazol-3-yl}bicyclo[1.1.1]pentan-1-yl)-3,4-dihydro-2H-1-benzopyran-2-carboxamide]", "values": [{"measurement": "EC50", "result": "10 to 50", "unit": "nM"}]}, {"compound": "O=C(NC12CC(c3ncc(-c4ccc(Cl)cc4)o3)(C1)C2)[C@H]1C[C@@H](O)c2cc(Cl)ccc2O1", "note": "[Compound 254, (2R,4R)-6-chloro-N-{3-[5-(4-chlorophenyl)-1,3-oxazol-2-yl]bicyclo[1.1.1]pentan-1-yl}-4-hydroxy-3,4-dihydro-2H-1-benzopyran-2-carboxamide]", "values": [{"measurement": "EC50", "result": "< 10", "unit": "nM"}]}, {"compound": "O=C(COc1ccc(Cl)c(F)c1)NC12CC(c3nnc([C@H]4C[C@@H](O)c5cc(Cl)ccc5O4)o3)(C1)C2", "note": "(relative stereo) [Compound 252, 2-(4-chloro-3-fluorophenoxy)-N-(3-{5-[(2R*,4R*)-6-chloro-4-hydroxy-3,4-dihydro-2H-1-benzopyran-2-yl]-1,3,4-oxadiazol-2-yl}bicyclo[1.1.1]pentan-1-yl)acetamide]", "values": [{"measurement": "EC50", "result": "< 10", "unit": "nM"}]}, {"compound": "O=C(N[C@H]1CC[C@H](N2CCN(C3CC(OC(F)(F)F)C3)C2=O)CC1)[C@H]1C[C@@H](O)c2cc(Cl)ccc2O1", "note": "(stereo partly shown) [Compound 197]", "values": [{"measurement": "EC50", "result": "> 2000", "unit": "nM"}]}, {"compound": "O=C(NC12CC(n3cc(C4CCC4)cn3)(C1)C2)[C@@H]1C[C@@H](O)c2cc(Cl)ccc2O1", "note": "[Compound 291, (2S,4R)-6-chloro-N-[3-(4-cyclobutyl-1H-pyrazol-1-yl)bicyclo[1.1.1]pentan-1-yl]-4-hydroxy-3,4-dihydro-2H-1-benzopyran-2-carboxamide]", "values": [{"measurement": "EC50", "result": "500 to 2000", "unit": "nM"}]}, {"compound": "O=C(NC12CC(c3cnn(-c4ccc(Cl)c(F)c4)c3)(C1)C2)[C@H]1C[C@@H](O)c2cc(Cl)ccc2O1", "note": "[Compound 237, (2R,4R)-6-chloro-N-{3-[1-(4-chloro-3-fluorophenyl)-1H-pyrazol-4-yl]bicyclo[1.1.1]pentan-1-yl}-4-hydroxy-3,4-dihydro-2H-1-benzopyran-2-carboxamide]", "values": [{"measurement": "EC50", "result": "< 10", "unit": "nM"}]}, {"compound": "O=C(N[C@@H]1C[C@@H]2O[C@H]1C[C@H]2c1nnc([C@H]2C[C@@H](OC(F)(F)F)C2)o1)[C@@H]1C[C@H](O)c2cc(Cl)ccc2O1", "note": "(racemic) [Compound 186]", "values": [{"measurement": "EC50", "result": "10 to 50", "unit": "nM"}]}, {"compound": "O=C1C[C@H](C(=O)NC23CCC(C(=O)NCc4ccc(C(F)(F)F)cn4)(CC2)CC3)Oc2ccc(Cl)cc21", "note": "[Compound 106, (2R)-6-chloro-4-oxo-N-[4-({[5-(trifluoromethyl)pyridin-2-yl]methyl}carbamoyl)bicyclo[2.2.2]octan-1-yl]-3,4-dihydro-2H-1-benzopyran-2-carboxamide]", "values": [{"measurement": "EC50", "result": "10 to 50", "unit": "nM"}]}, {"compound": "O=C1CC(C(=O)N[C@@H]2CC[C@@H](c3nnc([C@H]4C[C@@H](OC(F)(F)F)C4)o3)OC2)Oc2ccc(Cl)cc21", "note": "(stereo partly drawn) [Compound 152, 6-chloro-4-oxo-N-[(3R,6)-6-{5-[(1s,3R)-3-(trifluoromethoxy)cyclobutyl]-1,3,4-oxadiazol-2-yl}oxan-3-yl]-3,4-dihydro-2H-1-benzopyran-2-carboxamide]", "values": [{"measurement": "EC50", "result": "10 to 50", "unit": "nM"}]}, {"compound": "O=C(NC12CCC(c3ncc([C@H]4C[C@@H](OC(F)(F)F)C4)o3)(CC1)CC2)[C@H]1C[C@@H](O)c2cc(Cl)ccc2O1", "note": "[Compound 297, (2R,4R)-6-chloro-4-hydroxy-N-(4-{5-[cis-3-(trifluoromethoxy)cyclobutyl]-1,3-oxazol-2-yl}bicyclo[2.2.2]octan-1-yl)-3,4-dihydro-2H-1-benzopyran-2-carboxamide]", "values": [{"measurement": "EC50", "result": "10 to 50", "unit": "nM"}]}, {"compound": "N#C[C@H]1C[C@@H](Oc2nc(C34CC(NC(=O)[C@H]5C[C@@H](O)c6cc(Cl)ccc6O5)(C3)C4)cs2)C1", "note": "[Compound 286, (2R,4R)-6-chloro-N-[3-(2-{[cis-3-cyanocyclobutyl]oxy}-1,3-thiazol-4-yl)bicyclo[1.1.1]pentan-1-yl]-4-hydroxy-3,4-dihydro-2H-1-benzopyran-2-carboxamide]", "values": [{"measurement": "EC50", "result": "500 to 2000", "unit": "nM"}]}, {"compound": "O=C(NC12CC(c3cnn(-c4ccc(Cl)c(F)c4)c3)(C1)C2)[C@@H]1C[C@@H](O)c2cc(Cl)ccc2O1", "note": "[Compound 238, (2S,4R)-6-chloro-N-{3-[1-(4-chloro-3-fluorophenyl)-1H-pyrazol-4-yl]bicyclo[1.1.1]pentan-1-yl}-4-hydroxy-3,4-dihydro-2H-1-benzopyran-2-carboxamide]", "values": [{"measurement": "EC50", "result": "10 to 50", "unit": "nM"}]}, {"compound": "O=C(N[C@@H]1CC[C@@H](c2nnc([C@H]3C[C@@H](OC(F)(F)F)C3)o2)OC1)C1CC(O)c2cc(Cl)ccc2O1", "note": "(mixture of isomers) [Compound 161, (2RS,4RS)-6-chloro-4-hydroxy-N-[(3R,6)-6-{5-[cis-3-(trifluoromethoxy)cyclobutyl]-1,3,4-oxadiazol-2-yl}oxan-3-yl]-3,4-dihydro-2H-1-benzopyran-2-carboxamide]", "values": [{"measurement": "EC50", "result": "< 10", "unit": "nM"}]}, {"compound": "O=C(N[C@@H]1C[C@@H]2O[C@H]1C[C@H]2c1nnc([C@H]2C[C@@H](OC(F)(F)F)C2)o1)[C@H]1C[C@@H](O)c2cc(Cl)ccc2O1", "note": "(mixture of isomers) [Compound 187]", "values": [{"measurement": "EC50", "result": "50 to 250", "unit": "nM"}]}, {"compound": "O=C1CC(C(=O)NC23CCC(c4nnc([C@H]5C[C@@H](OC(F)(F)F)C5)o4)(CC2)OC3)Oc2ccc(Cl)cc21", "note": "(stereo partly shown) [Compound 163]", "values": [{"measurement": "EC50", "result": "10 to 50", "unit": "nM"}]}, {"compound": "O=C(NC12CC(n3ccc(-c4ccc(Cl)c(F)c4)c3)(C1)C2)[C@@H]1C[C@@H](O)c2cc(Cl)ccc2O1", "note": "[Compound 243, (2S,4R)-6-chloro-N-{3-[3-(4-chloro-3-fluorophenyl)-1H-pyrrol-1-yl]bicyclo[1.1.1]pentan-1-yl}-4-hydroxy-3,4-dihydro-2H-1-benzopyran-2-carboxamide]", "values": [{"measurement": "EC50", "result": "50 to 250", "unit": "nM"}]}]}
